Data: article PMC6259751, “Investigating Spectrum of Biological Activity of 4- and 5-Chloro-2-hydroxy-N-[2-(arylamino)-1-alkyl-2-oxoethyl]benzamides” (Molecules, 2011)
≈ marks a conversion by molar mass, not a printed value. Where “and” joins values, the source holds several entries; their conditions need not be identical. Equal entries are not always repeated. Where two headings read alike, the source gives them in different places.

Columns and labels:
[1] = tested on: methicilin resistant Staphylococcus aureus H 5996/08; assay: In vitro antibacterial susceptibility testing (broth microdilution)
[2] = tested on: Staphylococcus aureus CCM 4516/08; assay: as above; conditions: read-out: MIC SA
[3] = Lipophilicity determination by RP-HPLC (capacity factor k / log k); format: physicochemical; conditions: C18 column, MeOH 70% / H2O 30%, isocratic
Description: Hydrophobicities (log P/Clog P) of compounds 8 and 9 were calculated using two commercially available programs (ChemOffice Ultra 10.0 and ACD/LogP) and measured by means of RP-HPLC determination of capacity factors k with subsequent calculation of log k. The procedure was performed under isocratic conditions with methanol as an organic modifier in the mobile phase using an end-capped non-polar C18 stationary RP column. The results are shown in Table 1 and illustrated in Figure 1.
A Waters Alliance 2695 XE HPLC separation module and a Waters Photodiode Array Detector 2996 (Waters Corp., Milford, MA, USA) were used. A Symmetry® C18 5 μm, 4.6 × 250 mm, Part No. WAT054275 (Waters Corp., Milford, MA, USA) chromatographic column was used. The HPLC separation process was monitored by Empower™ 2 Chromatography Data Software, Waters 2009 (Waters Corp., Milford, MA, USA). A mixture of MeOH p.a. (70%) and H2O-HPLC – Mili-Q Grade (30%) was used as a mobile phase. The total flow of the column was 1.0 mL/min, injection volume, 30 μL, column temperature, 30 °C and sample temperature, 10 °C. The detection wavelength of 210 nm was chosen. The KI methanolic solution was used for the dead time (tD) determination. Retention times (tR) were measured in minutes. The capacity factors k were calculated using the Empower™ 2 Chromatography Data Software according to formula k = (tR - tD)/tD, where tR is the retention time of the solute, whereas tD denotes the dead time obtained using an unretained analyte. Log k, calculated from the capacity factor k, is used as the lipophilicity index converted to log P scale.

[4] = tested on: Mycobacterium avium MA CNCTC My 330/88; assay: In vitro antimycobacterial evaluation; format: cell-based; conditions: IC90 value
[5] = tested on: Trichophyton mentagrophytes 445; assay: In vitro antifungal susceptibility testing (broth microdilution); format: cell-based
[6] = tested on: Mycobacterium kansasii MK CNCTC My 235/80; assay: In vitro antimycobacterial evaluation; format: cell-based; conditions: IC90 value
[7] = tested on: Mycobacterium tuberculosis MTB CNCTC My 331/88; assay: In vitro antimycobacterial evaluation; format: cell-based; conditions: IC90 value
[8] = tested on: Enterococcus sp. J 14365/08; assay: In vitro antibacterial susceptibility testing (broth microdilution); conditions: read-out: MIC EF
[9] = tested on: Staphylococcus epidermidis H 6966/08; assay: as above
[10] = tested on: Candida tropicalis 156; assay: In vitro antifungal susceptibility testing (broth microdilution); format: cell-based; conditions: M27-A2 for yeasts, IC80 value
[11] = 72h, M38-A for moulds, IC50 value, read-out: MIC TM
[12] = 120h, M38-A for moulds, IC50 value, read-out: MIC TM
[13] = H6966/08, 24 h, read-out: MIC SE
[14] = H6966/08, 48 h, read-out: MIC SE
[15] = read-out: activity against methicillin-resistant Staphylococcus aureus (MIC)

Compound | MIC ([1]; MRSA, 24 h, read-out: MIC MRSA) [µM] | MIC ([1]; MRSA, 48 h, read-out: MIC MRSA) [µM] | MIC ([2]; CCM4516, 24 h) [µM] | MIC ([2]; CCM4516, 48 h) [µM] | log k [3] | MIC ([4]; 14h) [µM] | MIC ([4]; 21h) [µM] | MIC [5, 11] [µM] | MIC [5, 12] [µM] | MIC ([6]; 14h) [µM] | MIC ([6]; 21h) [µM] | MIC ([7]; 14h) [µM] | MIC ([7]; 21h) [µM] | MIC ([8]; SP.J14365/08, 24 h) [µM] | MIC ([8]; SP.J14365/08, 48 h) [µM] | MIC [9, 13] [µM] | MIC [9, 14] [µM] | MIC ([10]; 24h) [µM] | MIC ([10]; 48h) [µM] | other results
C[C@@H](NC(=O)c1cc(Cl)ccc1O)C(=O)Nc1cccc(Cl)c1 [8c, 5-chloro-N-{(1R)-2-[(3-chlorophenyl)amino]-1-methyl-2-oxoethyl}-2-hydroxybenzamide] | > 500 | > 500 | > 500 | > 500 | 0.41 and 0.4153 | 125 (≈ 44.2 µg/mL) | 250 (≈ 88.3 µg/mL) | 0.49 (≈ 0.173 µg/mL) | 0.49 (≈ 0.173 µg/mL) | 62.5 (≈ 22.1 µg/mL) | 62.5 (≈ 22.1 µg/mL) | 62.5 (≈ 22.1 µg/mL) | 125 (≈ 44.2 µg/mL) | > 500 | > 500 | > 500 | > 500 | 31.2 (≈ 11 µg/mL) | 125 (≈ 44.2 µg/mL) | MIC ([5]; conclusions, incubation time not stated, read-out: antifungal activity against Trichophyton mentagrophytes (MIC)): 0.49 µM (≈ 0.173 µg/mL)
CC(C)[C@@H](NC(=O)c1cc(Cl)ccc1O)C(=O)Nc1ccc(Cl)cc1 [8j] | 7.81 (≈ 2.98 µg/mL) | 7.81 (≈ 2.98 µg/mL) | 7.81 (≈ 2.98 µg/mL) | 7.81 (≈ 2.98 µg/mL) | 0.6125 | 62.5 (≈ 23.8 µg/mL) | 62.5 (≈ 23.8 µg/mL) | 62.5 (≈ 23.8 µg/mL) | 62.5 (≈ 23.8 µg/mL) | 62.5 (≈ 23.8 µg/mL) | 62.5 (≈ 23.8 µg/mL) | 32 (≈ 12.2 µg/mL) | 32 (≈ 12.2 µg/mL) | 250 (≈ 95.3 µg/mL) | 500 (≈ 191 µg/mL) | 31.2 (≈ 11.9 µg/mL) | 125 (≈ 47.7 µg/mL) | > 125 | > 125 | MIC [1, 15]: 7.81 µM (≈ 2.98 µg/mL)
OC(Cn1cncn1)(Cn1cncn1)c1ccc(F)cc1F [FLU, fluconazole, reference compound] |  |  |  |  |  |  |  | 1.95 (≈ 0.597 µg/mL) | 3.91 (≈ 1.2 µg/mL) |  |  |  |  |  |  |  |  | 0.12 (≈ 0.0368 µg/mL) | > 125 | 
O=C(O)c1cn(C2CC2)c2cc(N3CCNCC3)c(F)cc2c1=O [CPF, ciprofloxacin, reference compound] | 500 (≈ 166 µg/mL) | 500 (≈ 166 µg/mL) |  |  |  |  |  |  |  |  |  |  |  |  |  | 250 (≈ 82.8 µg/mL) | 250 (≈ 82.8 µg/mL) |  |  | 
CC(C)[C@H](NC(=O)c1cc(Cl)ccc1O)C(=O)Nc1ccc(Cl)cc1 [8i] | 15.6 (≈ 5.96 µg/mL) | 15.6 (≈ 5.96 µg/mL) | 7.81 (≈ 2.98 µg/mL) | 15.6 (≈ 5.96 µg/mL) | 0.6371 | 62.5 (≈ 23.8 µg/mL) | 62.5 (≈ 23.8 µg/mL) | > 125 | > 125 | 62.5 (≈ 23.8 µg/mL) | 62.5 (≈ 23.8 µg/mL) | 32 (≈ 12.2 µg/mL) | 32 (≈ 12.2 µg/mL) | 31.2 (≈ 11.9 µg/mL) | 150 (≈ 57.2 µg/mL) | 31.2 (≈ 11.9 µg/mL) | 250 (≈ 95.3 µg/mL) | > 125 | > 125 | 
O=C(N[C@H](Cc1ccccc1)C(=O)Nc1cccc(Cl)c1)c1cc(Cl)ccc1O [8g, N-{(1S/R)-1-benzyl-2-[(3-chlorophenyl)amino]-2-oxoethyl}-5-chloro-2-hydroxybenzamide] | > 500 | > 500 | > 500 | > 500 | 0.70 and 0.7066 | 32 (≈ 13.7 µg/mL) | 32 (≈ 13.7 µg/mL) | 125 (≈ 53.7 µg/mL) | 125 (≈ 53.7 µg/mL) | 62.5 (≈ 26.8 µg/mL) | 62.5 (≈ 26.8 µg/mL) | 62.5 (≈ 26.8 µg/mL) | 62.5 (≈ 26.8 µg/mL) | > 500 | > 500 | > 500 | > 500 | 31.2 (≈ 13.4 µg/mL) | 125 (≈ 53.7 µg/mL) | 
C[C@@H](NC(=O)c1cc(Cl)ccc1O)C(=O)Nc1ccc(Cl)cc1 [8h] | > 500 | > 500 | > 500 | > 500 | 0.4308 | 125 (≈ 44.2 µg/mL) | 125 (≈ 44.2 µg/mL) | > 125 | > 125 | 125 (≈ 44.2 µg/mL) | 250 (≈ 88.3 µg/mL) | 8 (≈ 2.83 µg/mL) | 16 (≈ 5.65 µg/mL) | > 500 | > 500 | > 500 | > 500 | > 125 | > 125 | 
CC(C)[C@@H](NC(=O)c1cc(Cl)ccc1O)C(=O)Nc1ccc(Br)cc1 [8t] | > 125 | > 125 | > 125 | > 125 | 0.6646 | 62.5 (≈ 26.6 µg/mL) | 62.5 (≈ 26.6 µg/mL) | > 125 | > 125 | 62.5 (≈ 26.6 µg/mL) | 125 (≈ 53.2 µg/mL) | 62.5 (≈ 26.6 µg/mL) | 62.5 (≈ 26.6 µg/mL) | > 125 | > 125 | > 125 | > 125 | > 125 | > 125 | 
O=C(CNC(=O)c1cc(Cl)ccc1O)Nc1ccc(Cl)c(Cl)c1 [8m] | > 125 | > 125 | > 125 | > 125 | 0.4971 | 62.5 (≈ 23.4 µg/mL) | 500 (≈ 187 µg/mL) | > 125 | > 125 | 125 (≈ 46.7 µg/mL) | 500 (≈ 187 µg/mL) | 125 (≈ 46.7 µg/mL) | 500 (≈ 187 µg/mL) | > 125 | > 125 | > 125 | > 125 | > 125 | > 125 | 
CC1(C)S[C@@H]2[C@H](NC(=O)Cc3ccccc3)C(=O)N2[C@H]1C(=O)O [PEN, penicillin G, reference compound] | 125 (≈ 41.8 µg/mL) | 125 (≈ 41.8 µg/mL) | 0.24 (≈ 0.0803 µg/mL) | 0.24 (≈ 0.0803 µg/mL) |  |  |  |  |  |  |  |  |  | 7.81 (≈ 2.61 µg/mL) | 15.6 (≈ 5.22 µg/mL) | 31.6 (≈ 10.6 µg/mL) | 125 (≈ 41.8 µg/mL) |  |  | 
CC(C)[C@@H](NC(=O)c1cc(Cl)ccc1O)C(=O)Nc1ccc(Cl)c(Cl)c1 [8p] | > 500 | > 500 | > 500 | > 500 | 0.8614 | 62.5 (≈ 26 µg/mL) | 125 (≈ 52 µg/mL) | > 125 | > 125 | 32 (≈ 13.3 µg/mL) | 62.5 (≈ 26 µg/mL) | 16 (≈ 6.65 µg/mL) | 32 (≈ 13.3 µg/mL) | > 500 | > 500 | > 500 | > 500 | > 125 | > 125 | 
CC(C)[C@H](NC(=O)c1cc(Cl)ccc1O)C(=O)Nc1ccc(Cl)c(Cl)c1 [8o] | > 500 | > 500 | > 500 | > 500 | 0.8623 | 62.5 (≈ 26 µg/mL) | 125 (≈ 52 µg/mL) | > 125 | > 125 | 32 (≈ 13.3 µg/mL) | 62.5 (≈ 26 µg/mL) | 32 (≈ 13.3 µg/mL) | 32 (≈ 13.3 µg/mL) | > 500 | > 500 | > 500 | > 500 | > 125 | > 125 | 
C[C@@H](NC(=O)c1ccc(Cl)cc1O)C(=O)Nc1ccc(Cl)cc1 [9b, 4-Chloro-N-{(1R)-2-[(4-chlorophenyl)-amino]-1-methyl-2-oxoethyl}-2-hydroxy benzamide] | 7.81 (≈ 2.76 µg/mL) | 7.81 (≈ 2.76 µg/mL) | 7.81 (≈ 2.76 µg/mL) | 7.81 (≈ 2.76 µg/mL) | 0.4921 | 125 (≈ 44.2 µg/mL) | 125 (≈ 44.2 µg/mL) | 250 (≈ 88.3 µg/mL) | 250 (≈ 88.3 µg/mL) | 125 (≈ 44.2 µg/mL) | 125 (≈ 44.2 µg/mL) | 32 (≈ 11.3 µg/mL) | 62.5 (≈ 22.1 µg/mL) | 500 (≈ 177 µg/mL) | 500 (≈ 177 µg/mL) | 1.95 (≈ 0.689 µg/mL) | 1.95 (≈ 0.689 µg/mL) | 250 (≈ 88.3 µg/mL) | 250 (≈ 88.3 µg/mL) | MIC [1, 15]: 7.81 µM (≈ 2.76 µg/mL); MIC ([9]; H6966/08, read-out: activity against S. epidermidis (MIC)): 1.95 µM (≈ 0.689 µg/mL)
NNC(=O)c1ccncc1 [INH, isoniazid, reference compound] |  |  |  |  |  | > 250 | > 250 |  |  | > 250 | > 250 | 0.5 (≈ 0.0686 µg/mL) | 0.5 (≈ 0.0686 µg/mL) |  |  |  |  |  |  | 
